Source: paper PMC9090415, “Discovery of small molecule inhibitors of Plasmodium falciparum apicoplast DNA polymerase” (Journal of Enzyme Inhibition and Medicinal Chemistry, 2022)

Target: P. falciparum apicoplast DNA polymerase (Pf-apPOL) (Plasmodium falciparum, UniProt Q8ILY1)
Assay: Fluorescence-based high-throughput DNA polymerase assay (molecular beacon), primary screen and dose-response
Type: biochemical
Conditions: for DNA Pol: 90 min, 10 µM; for % inhibition Apo pol 10' 2.5 / % inhibition Apo pol 10' 5 / % inhibition Apo pol 10' 10 / % inhibition Apo pol 10' 20 / % inhibition Apo pol 10' 40 / % inhibition Apo pol 10' 80: read at 10'; for % inhibition Apol 90' 2.5 / % inhibition Apol 90' 5 / % inhibition Apol 90' 10 / % inhibition Apol 90' 20 / % inhibition Apol 90' 40 / % inhibition Apol 90' 80 / % inhibition ApPOL 90' 2.5 / % inhibition ApPOL 90' 5 / % inhibition ApPOL 90' 10 / % inhibition ApPOL 90' 20 / % inhibition ApPOL 90' 40 / % inhibition ApPOL 90' 80: read at 90'; for % inhibition apPOL 180' 2.5 / % inhibition apPOL 180' 5 / % inhibition apPOL 180' 10 / % inhibition apPOL 180' 20 / % inhibition apPOL 180' 40 / % inhibition apPOL 180' 80: read at 180'; for % inhibition Apo pol 5' 2.5 / % inhibition Apo pol 5' 5 / % inhibition Apo pol 5' 10 / % inhibition Apo pol 5' 20 / % inhibition Apo pol 5' 40 / % inhibition Apo pol 5' 80: read at 5'; for % inhibition Apol 40' 2.5 / % inhibition Apol 40' 5 / % inhibition Apol 40' 10 / % inhibition Apol 40' 20 / % inhibition Apol 40' 40 / % inhibition Apol 40' 80: read at 40'
In short: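 Single-point screening used 10 µM compound with 20 nM polymerase, 20 nM hairpin substrate and 6 µM dNTPs for 90 min at 25 °C. Confirmatory titrations (2.5–80 µM) followed fluorescence at three times, and IC50 was derived from a fit including a cooperativity term n.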

[1] = 186 hits, DNA Pol (screen value), unit not given
[2] = 'DNA Pol' (screen value), unit not given

P. falciparum apicoplast DNA polymerase (Pf-apPOL), sequence (Q8ILY1 entry or part of it): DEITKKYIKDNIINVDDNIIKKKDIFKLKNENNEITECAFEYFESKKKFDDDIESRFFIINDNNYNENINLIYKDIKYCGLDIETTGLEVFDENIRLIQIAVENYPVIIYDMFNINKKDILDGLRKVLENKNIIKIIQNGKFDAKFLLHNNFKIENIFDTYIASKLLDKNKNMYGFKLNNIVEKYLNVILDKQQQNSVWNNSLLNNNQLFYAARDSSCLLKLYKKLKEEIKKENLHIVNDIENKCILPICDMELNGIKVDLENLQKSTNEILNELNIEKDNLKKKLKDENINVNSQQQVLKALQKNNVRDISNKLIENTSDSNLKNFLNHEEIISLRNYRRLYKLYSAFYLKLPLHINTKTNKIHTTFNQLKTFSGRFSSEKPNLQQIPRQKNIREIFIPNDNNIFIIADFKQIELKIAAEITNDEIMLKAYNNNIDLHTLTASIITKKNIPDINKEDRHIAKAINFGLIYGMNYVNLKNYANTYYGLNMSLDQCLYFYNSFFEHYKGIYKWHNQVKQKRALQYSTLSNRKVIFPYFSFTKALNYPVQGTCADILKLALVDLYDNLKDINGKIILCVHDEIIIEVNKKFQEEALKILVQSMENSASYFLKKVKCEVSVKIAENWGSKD

## C#CC(C=CC)OC(=O)c1ccccc1C(=O)O (stereo not drawn) [Molecule 61, CC=CC(OC(=O)c1ccccc1C(=O)O)C#C]
[1]
  DNA Pol: 84
[2]
  DNA Pol: 84
DRC-1, concentration 2.5
  % inhibition Apo pol 10' 2.5: 8.856%
  % inhibition Apol 90' 2.5: 1.5571%
  % inhibition apPOL 180' 2.5: -3.738%
DRC-1, concentration 5
  % inhibition Apo pol 10' 5: 15.4135%
  % inhibition Apol 90' 5: 4.145%
  % inhibition apPOL 180' 5: -3.151%
DRC-1, concentration 10
  % inhibition Apo pol 10' 10: 32.6686%
  % inhibition Apol 90' 10: 16.9852%
  % inhibition apPOL 180' 10: 5.1086%
DRC-1, concentration 20
  % inhibition Apo pol 10' 20: 51.5021%
  % inhibition Apol 90' 20: 30.9577%
  % inhibition apPOL 180' 20: 14.9685%
DRC-1, concentration 40
  % inhibition Apo pol 10' 40: 73.1045%
  % inhibition Apol 90' 40: 54.6934%
  % inhibition apPOL 180' 40: 36.8949%
DRC-1, concentration 80
  % inhibition Apo pol 10' 80: 83.6168%
  % inhibition Apol 90' 80: 70.5531%
  % inhibition apPOL 180' 80: 55.2706%
DRC-2, concentration 80
  % inhibition Apo pol 5': 57%
  % inhibition Apol 40': 69%
  % inhibition apPOL 180': 69%
  % inhibition Apo pol 5' 80: 57%
  % inhibition Apol 40' 80: 69%
  % inhibition ApPOL 90' 80: 71%
  % inhibition apPOL 180' 80: 69%
DRC-2, concentration 20
  % inhibition ApPOL 90': 48%
  % inhibition Apo pol 5' 20: 50%
  % inhibition Apol 40' 20: 52%
  % inhibition ApPOL 90' 20: 48%
  % inhibition apPOL 180' 20: 35%
DRC-2, concentration 40
  % inhibition ApPOL 90': 57%
  % inhibition apPOL 180': 48%
  % inhibition Apo pol 5' 40: 54%
  % inhibition Apol 40' 40: 59%
  % inhibition ApPOL 90' 40: 57%
  % inhibition apPOL 180' 40: 48%
DRC-2, concentration 2.5
  % inhibition apPOL 180': -4%
  % inhibition Apo pol 5' 2.5: 3.3%
  % inhibition Apol 40' 2.5: 3%
  % inhibition ApPOL 90' 2.5: 0.76%
  % inhibition apPOL 180' 2.5: -4%
DRC-2, concentration 5
  % inhibition apPOL 180': -4%
  % inhibition Apo pol 5' 5: 15%
  % inhibition Apol 40' 5: 11%
  % inhibition ApPOL 90' 5: 5.31%
  % inhibition apPOL 180' 5: -4%
DRC-2, concentration 10
  % inhibition Apo pol 5' 10: 33%
  % inhibition Apol 40' 10: 31%
  % inhibition ApPOL 90' 10: 26%
  % inhibition apPOL 180' 10: 13%

## CC(C)CC(C(=O)O)N1C(=O)C2C3C=CC(C2C1=O)C1C(=O)N(C(CC(C)C)C(=O)O)C(=O)C31 (stereo not drawn) [KU0193449]
[1]
  DNA Pol: 28
[2]
  DNA Pol: 28
DRC-1, concentration 2.5
  % inhibition Apo pol 10' 2.5: 0%
  % inhibition Apol 90' 2.5: 5.482%
  % inhibition apPOL 180' 2.5: 11.5947%
DRC-1, concentration 5
  % inhibition Apo pol 10' 5: 0.7522%
  % inhibition Apol 90' 5: 4.361%
  % inhibition apPOL 180' 5: 8.787%
DRC-1, concentration 10
  % inhibition Apo pol 10' 10: 13.4113%
  % inhibition Apol 90' 10: 18.2004%
  % inhibition apPOL 180' 10: 22.2545%
DRC-1, concentration 20
  % inhibition Apo pol 10' 20: 21.694%
  % inhibition Apol 90' 20: 26.7933%
  % inhibition apPOL 180' 20: 29.0446%
DRC-1, concentration 40
  % inhibition Apo pol 10' 40: 38.6815%
  % inhibition Apol 90' 40: 43.0787%
  % inhibition apPOL 180' 40: 41.2526%
DRC-1, concentration 80
  % inhibition Apo pol 10' 80: 61.0106%
  % inhibition Apol 90' 80: 61.6554%
  % inhibition apPOL 180' 80: 55.1992%
DRC-2, concentration 20
  % inhibition Apo pol 5': 13%
  % inhibition Apol 40': 20%
  % inhibition ApPOL 90': 20%
  % inhibition apPOL 180': 13%
  % inhibition Apo pol 5' 20: 13%
  % inhibition Apol 40' 20: 20%
  % inhibition ApPOL 90' 20: 20%
  % inhibition apPOL 180' 20: 13%
DRC-2, concentration 2.5
  % inhibition Apo pol 5' 2.5: -1.41%
  % inhibition Apol 40' 2.5: -0.315%
  % inhibition ApPOL 90' 2.5: -0.778%
  % inhibition apPOL 180' 2.5: -5%
DRC-2, concentration 5
  % inhibition Apo pol 5' 5: 2.69%
  % inhibition Apol 40' 5: 4.49%
  % inhibition ApPOL 90' 5: 4.24%
  % inhibition apPOL 180' 5: -2.57%
DRC-2, concentration 10
  % inhibition Apo pol 5' 10: 10%
  % inhibition Apol 40' 10: 12%
  % inhibition ApPOL 90' 10: 11%
  % inhibition apPOL 180' 10: 5%
DRC-2, concentration 40
  % inhibition Apo pol 5' 40: 23%
  % inhibition Apol 40' 40: 33%
  % inhibition ApPOL 90' 40: 34%
  % inhibition apPOL 180' 40: 28%
DRC-2, concentration 80
  % inhibition Apo pol 5' 80: 31%
  % inhibition Apol 40' 80: 49%
  % inhibition ApPOL 90' 80: 51%
  % inhibition apPOL 180' 80: 47%

## Cc1ccc(NC(=O)Cn2ccc3c(=O)[nH]ccc32)cc1F [Molecule 48, O=C(Cn1ccc2c1cc[nH]c2=O)Nc1ccc(c(c1)F)C]
"DNA Pol" of the 186 hits list (screen value)
  DNA Pol: 27
DRC-1, concentration 2.5
  % inhibition Apo pol 10': 0.4313%
  % inhibition Apol 90': -2.985%
  % inhibition apPOL 180': -5.068%
DRC-1, concentration 5
  % inhibition Apo pol 10': 4.695%
  % inhibition Apol 90': -1.632%
  % inhibition apPOL 180': -4.79%
DRC-1, concentration 10
  % inhibition Apo pol 10': 32.4815%
  % inhibition Apol 90': 21.1063%
  % inhibition apPOL 180': 10.5149%
DRC-1, concentration 20
  % inhibition Apo pol 10': 59.9779%
  % inhibition Apol 90': 47.267%
  % inhibition apPOL 180': 31.5724%
DRC-1, concentration 40
  % inhibition Apo pol 10': 70.0783%
  % inhibition Apol 90': 60.3661%
  % inhibition apPOL 180': 45.3289%
DRC-1, concentration 80
  % inhibition Apo pol 10': 79.5186%
  % inhibition Apol 90': 79.6602%
  % inhibition apPOL 180': 73.7679%
DRC-2, concentration 2.5
  % inhibition Apo pol 5': -5.29%
  % inhibition Apol 40': -4.56%
  % inhibition ApPOL 90': -6.53%
  % inhibition apPOL 180': -10%
DRC-2, concentration 5
  % inhibition Apo pol 5': 3%
  % inhibition Apol 40': 4%
  % inhibition ApPOL 90': 2.25%
  % inhibition apPOL 180': -4%
DRC-2, concentration 10
  % inhibition Apo pol 5': 22%
  % inhibition Apol 40': 23%
  % inhibition ApPOL 90': 21%
  % inhibition apPOL 180': 7%
DRC-2, concentration 20
  % inhibition Apo pol 5': 44%
  % inhibition Apol 40': 57%
  % inhibition ApPOL 90': 56%
  % inhibition apPOL 180': 49%
DRC-2, concentration 40
  % inhibition Apo pol 5': 46%
  % inhibition Apol 40': 65%
  % inhibition ApPOL 90': 67%
  % inhibition apPOL 180': 65%
DRC-2, concentration 80
  % inhibition Apo pol 5': 38%
  % inhibition Apol 40': 62%
  % inhibition ApPOL 90': 67%
  % inhibition apPOL 180': 69%
Primary screen value, DNA Pol
  DNA Pol: 27
